Experimental data published in patent publication US20110111980A1, “METHOD FOR PROFILING DRUG COMPOUNDS” (priority 2008, published 2011).

Assays:
[1] = tested on: Non Small Cell Lung Cancer (NSCLC) tissue; experiment: PamChip kinase activity of NSCLC tumor tissue lysates with and without inhibitor; type: biochemical; settings: 1 μmol/L inhibitor, short vs long survival patients, data not shown
[2] = tested on: UT-SCC-9, UT-SCC-27, UT-SCC-54C, and UT-SCC-76; experiment: PamChip kinase inhibition profiles of 4 patient derived head and neck squamous cell carcinoma cell lines; type: biochemical; settings: selected set of peptides, FIG. 3b
Procedure: Cells were harvested and were lysed in Mammalian Extraction Buffer (M-PER, Pierce) containing phosphatase and protease inhibitors (HALT, Pierce). Five microliter of the lysis solution was pipetted into a reaction mixture composed of 1×ABL buffer (New England Biolabs, cat.nr B6050S), 0.1% Bovine Serum Albumin, 100 μM ATP, 20 μg/ml phosphotyrosine antibody to an end volume of 40 microliter. Before incubation a blocking step was carried out on the substrate arrays with 0.2% bovine serum albumin. […] Real time data were obtained by measuring fluorescence of the bound anti-phosphotyrosine antibody after each 5 cycles. Image quantification and data processing was conducted with dedicated Pamgene software (Evolve and Bionavigator).
The 4 cell lines chosen, UT-SCC-9, UT-SCC-27, UT-SCC-54C, and UT-SCC-76 are patient derived cell lines, known to respond differently to radiation (in a model for therapy in head and neck cancer, squamous cell carcinomas, especially). […] The data shown are from a selected set of peptides of which the ratios of phosphorylation in the absence (0) and presence of the inhibitor are represented.

SMILES | differences between the phosphorylation profiles with and without the protein kinase inhibitor [1] | inhibition profiles (ratios of phosphorylation in the absence and presence of the inhibitor), differences between cell lines [2]
COc1cc2ncnc(Nc3ccc(F)c(Cl)c3)c2cc1OCCCN1CCOCC1 [Gefitinib] | a number of essential differences | 
Cc1ccc(-c2nn(C(C)(C)C)c3ncnc(N)c23)cc1 [PP1] |  | pronounced differences
